Among the test systems are OVCAR-4 ovarian; SNB-75 CNS; NCI-H226 lung; SF-539 CNS; K-562 leukemia; CAKI-1 renal; MCF7 breast; ACHN renal.
What all share (assay): DTP human tumour cell line panel, 48 h

This is an account of results in PubChem BioAssay (NCI).

The structures appear in SMILES notation. Values joined by “and” are separate entries in the source; they are usually repeats but may differ in a detail not shown here. Identical values can stand only once.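 Dose response: 5 concentrations. Exposure: 48 h. Format: 96-well plates. Endpoint: linear interpolation; highest concentration if not reached. GI50: concentration for 50% inhibition of growth. TGI: total growth inhibition.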

For the molecule `Oc1c(Cl)cc(Cl)c2cccnc12`, the GI50 in the test on OVCAR-4 ovarian was 2.32 µM; with SNB-75 CNS, 6.27 µM; in the test with NCI-H226 lung, 3.15 µM; in the test on SF-539 CNS it was 4.08 µM; in the test on K-562 leukemia it was 3.77 µM; in the test on CAKI-1 renal, 2.71 µM. In addition, the GI50 was 3.75 µM in the test on MCF7 breast and 3.78 µM with ACHN renal. Besides, the TGI with OVCAR-4 ovarian was 7.85 µM; with SNB-75 CNS it was above 100 µM; in the test with NCI-H226 lung, 14.7 µM; in the test with SF-539 CNS, 71.1 µM; in the test with K-562 leukemia, above 100 µM; in the test on CAKI-1 renal, 19 µM. Besides, the figures for the TGI in the test on MCF7 breast and in the test with ACHN renal were 13.8 µM and 40.5 µM, respectively.

With `C[C@H]1c2ccccc2CN1CCCOc1cc2c(cc1OCC1CC1)C1(CCCC1)C(N)=N2`, the GI50 in the test on OVCAR-4 ovarian was 1.83 µM; in the test on SNB-75 CNS, 0.994 µM; in the test with NCI-H226 lung, 1.02 µM; in the test on SF-539 CNS it was 0.922 µM; in the test with K-562 leukemia, 0.871 µM; in the test with CAKI-1 renal, 1.79 µM. Also, the GI50 in the test with MCF7 breast is 1.18 µM; with ACHN renal, 1.8 µM. Besides, the TGI with OVCAR-4 ovarian was found to be 7.42 µM; in the test with SNB-75 CNS it was 4.86 µM; with NCI-H226 lung, 2.9 µM; in the test on SF-539 CNS it was 1.89 µM; with K-562 leukemia it was 2.46 µM; in the test with CAKI-1 renal, 7.65 µM. For the same molecule, the TGI was 3.46 µM with MCF7 breast and 6.69 µM in the test with ACHN renal.

For `O=C1CCC(N2C(=O)c3cccc(NCCCC4CCN(CCNC(=O)c5cc6c(o5)C(=O)c5ccccc5C6=O)CC4)c3C2=O)C(=O)N1` (centres undefined), the GI50 with OVCAR-4 ovarian is 0.747 µM; in the test with SNB-75 CNS it was 1.53 µM; in the test with NCI-H226 lung, 1.42 µM; with SF-539 CNS, 1.32 µM; in the test with K-562 leukemia it was 0.654 µM; in the test with CAKI-1 renal it was 2.17 µM. Further, the GI50 in the test on MCF7 breast is 0.0102 µM; with ACHN renal, 1.29 µM. The TGI stood at 2.08 µM in the test on OVCAR-4 ovarian; 2.88 µM in the test on SNB-75 CNS; 3.76 µM in the test on NCI-H226 lung; 2.59 µM in the test with SF-539 CNS; 6.3 µM with K-562 leukemia; 9.13 µM in the test with CAKI-1 renal. Besides, the figures for the TGI in the test on MCF7 breast and with ACHN renal were 0.215 µM and 2.56 µM, respectively.

Consider `C=CCn1c(=O)c2cnc(Nc3ccc(N4CCN(C)CC4)cc3)nc2n1-c1cccc(C(C)(C)O)n1`, for which the GI50 with OVCAR-4 ovarian is 0.373 µM and 0.507 µM; with SNB-75 CNS, 1.44 µM and 0.717 µM; in the test with NCI-H226 lung, 0.456 µM and 1.9 µM; in the test on SF-539 CNS, 0.161 µM and 0.287 µM; with K-562 leukemia, 0.315 µM and 0.282 µM; in the test with CAKI-1 renal it was 0.24 µM and 0.152 µM. Besides, the concentration for 50% growth inhibition (GI50) in the test on MCF7 breast was 0.323 µM; in the test on ACHN renal, 0.075 µM and 0.226 µM. Further, the TGI in the test with OVCAR-4 ovarian is 28.7 µM and > 10 µM; in the test on SNB-75 CNS, 8.68 µM and 6.37 µM; in the test with NCI-H226 lung, 5.95 µM and > 7.68 µM; in the test on SF-539 CNS, 2.3 µM and 1.15 µM; in the test with K-562 leukemia it was 17.8 µM and > 7.64 µM; in the test on CAKI-1 renal, 16.7 µM and > 10 µM. In addition, the TGI in the test on MCF7 breast was 21.4 µM and > 10 µM; in the test with ACHN renal, above 100 µM.

Regarding `NNc1c2ccccc2nc2ccccc12`, the GI50 is 2.62 µM with OVCAR-4 ovarian; 2.67 µM in the test with SNB-75 CNS; 4.26 µM in the test on NCI-H226 lung; 3.73 µM in the test on SF-539 CNS; 3.32 µM in the test on K-562 leukemia; 3.29 µM with CAKI-1 renal. Also, the GI50 was 3.77 µM with MCF7 breast and 5.31 µM in the test on ACHN renal. Also, the TGI in the test on OVCAR-4 ovarian amounted to 19.4 µM; with SNB-75 CNS, 17.8 µM; with NCI-H226 lung it was 43 µM; with SF-539 CNS, 22.9 µM; with K-562 leukemia, 64.7 µM; with CAKI-1 renal, 19.4 µM. For the same molecule, the TGI was 33.7 µM in the test with MCF7 breast and 33.9 µM in the test with ACHN renal.

Take `O=C(NN1C(=O)CSC1c1ccc(F)cc1)C(O)c1ccccc1` (centres undefined): the GI50 was above 100 µM in the test on OVCAR-4 ovarian; 33.4 µM with SNB-75 CNS; above 100 µM in the test on NCI-H226 lung; above 100 µM in the test with SF-539 CNS; 43.3 µM with K-562 leukemia; above 100 µM in the test on CAKI-1 renal. Further, the GI50 is above 100 µM with MCF7 breast and 91.5 µM in the test on ACHN renal. The TGI with OVCAR-4 ovarian, in the test with SNB-75 CNS, with NCI-H226 lung, with SF-539 CNS, in the test with K-562 leukemia and in the test with CAKI-1 renal was above 100 µM each time. Besides, the TGI in the test on MCF7 breast and in the test with ACHN renal was above 100 µM each time.

Consider `Nc1n[nH]c2ccc([C@@H]3Nc4cc5[nH]ncc5cc4[C@H]4C5CCC(C5)[C@@H]34)cc12` (some centres undefined), for which the GI50 in the test on OVCAR-4 ovarian is 9.3 µM; in the test on SNB-75 CNS, 0.27 µM; with NCI-H226 lung it was 1.17 µM; in the test on SF-539 CNS it was 0.269 µM; in the test with K-562 leukemia it was 0.315 µM; in the test with CAKI-1 renal it was 0.355 µM. For the same molecule, the GI50 is 0.384 µM in the test with MCF7 breast and 0.723 µM in the test with ACHN renal. In addition, the TGI in the test on OVCAR-4 ovarian was above 100 µM; with SNB-75 CNS, 22.9 µM; in the test with NCI-H226 lung it was 46.2 µM; with SF-539 CNS it was 3.17 µM; in the test on K-562 leukemia, above 100 µM; in the test on CAKI-1 renal, above 39.2 µM. In addition, the values for the TGI in the test on MCF7 breast and with ACHN renal were above 80.8 µM and 53.5 µM, respectively.

Regarding `O=c1c(-c2ccccc2)coc2cc(OC/C(=N/O)c3ccc(F)cc3)ccc12`, the GI50 was 13.7 µM in the test with OVCAR-4 ovarian; 16.8 µM in the test with SNB-75 CNS; 25.1 µM in the test with NCI-H226 lung; 15.2 µM in the test with SF-539 CNS; 16.2 µM with K-562 leukemia; 0.0715 µM in the test with CAKI-1 renal. The GI50 with MCF7 breast was 25.9 µM; in the test with ACHN renal it was 22.4 µM. Also, the TGI is 59.3 µM in the test with OVCAR-4 ovarian; 92.9 µM with SNB-75 CNS; 77.7 µM with NCI-H226 lung; 29.6 µM in the test with SF-539 CNS; above 100 µM in the test on K-562 leukemia; 26.3 µM in the test on CAKI-1 renal. Moreover, the TGI with MCF7 breast was above 100 µM; with ACHN renal it was 43.5 µM.

For `Cc1oc2c(c1C(=O)N1CC[C@@H](N)C1)C(=O)c1c(c(O)c3ccccc3c1O)C2=O`, the GI50 in the test on OVCAR-4 ovarian was 2.92 µM; in the test with SNB-75 CNS it was 2.11 µM; in the test with NCI-H226 lung, 1.52 µM; with SF-539 CNS, 2.55 µM; with K-562 leukemia it was 1.86 µM; in the test with CAKI-1 renal, 0.611 µM. For the same molecule, the GI50 was 1.01 µM in the test with MCF7 breast and 0.629 µM in the test with ACHN renal. Moreover, the TGI turned out to be 11.8 µM with OVCAR-4 ovarian; 15.4 µM in the test on SNB-75 CNS; 22.6 µM in the test on NCI-H226 lung; 11.7 µM with SF-539 CNS; 9 µM with K-562 leukemia; 11.4 µM in the test on CAKI-1 renal. Further, the TGI in the test with MCF7 breast was found to be 4.9 µM; in the test with ACHN renal it was 11.1 µM.

What is called GI50 is the concentration that inhibits growth by half. One may read the TGI as the concentration at which net growth stops.
